Measured values: ChEMBL document CHEMBL1795209, “1-Chloro-2-formyl indenes and tetralenes as antitubercular agents” (Bioorg Med Chem Lett, 2011)
≈ marks a conversion by molar mass, not a printed value. Calls of active or inactive are those of the source. The calls are words filed in the database; no cut-off is given here.

Experiments:
[1] = tested on: Mycobacterium tuberculosis; assay: Antitubercular activity against Mycobacterium tuberculosis H37Rv by Bactec 460 method; type: functional
[2] = tested on: Mycobacterium tuberculosis; assay: Antitubercular activity against Mycobacterium tuberculosis H37Rv at 500 ug/ml by Bactec 460 method; type: functional, organism-based
[3] = tested on: Mus musculus; assay: Acute toxicity in Swiss albino mouse assessed as change in total WBC count at 5 to 300 mg/kg, po administered as single dose; type: organism-based; parameters: dose 5-300 mg/kg, route oral; conditions: in vivo
[4] = Acute toxicity in po dosed Swiss albino mouse administered as single dose; type: organism-based; conditions: in vivo
[5] = tested on: Mus musculus; assay: Acute toxicity in Swiss albino mouse assessed as change in creatinine level at 5 to 300 mg/kg, po administered as single dose; type: organism-based; parameters: dose 5-300 mg/kg, route oral; conditions: in vivo
[6] = tested on: Mus musculus; assay: Acute toxicity in Swiss albino mouse assessed as change in hemoglobin level at 5 to 300 mg/kg, po administered as single dose; type: organism-based; parameters: dose 5-300 mg/kg, route oral; conditions: in vivo
[7] = tested on: Mus musculus; assay: Acute toxicity in Swiss albino mouse assessed as morbidity at 5 to 300 mg/kg, po administered as single dose; type: organism-based; parameters: dose 5-300 mg/kg, route oral; conditions: in vivo
[8] = tested on: Mus musculus; assay: Acute toxicity in Swiss albino mouse assessed as change in SGPT level at 5 to 300 mg/kg, po administered as single dose; type: organism-based; parameters: dose 5-300 mg/kg, route oral; conditions: in vivo
[9] = tested on: Mus musculus; assay: Acute toxicity in Swiss albino mouse assessed as change in SGOT level at 5 to 300 mg/kg, po administered as single dose; type: organism-based; parameters: dose 5-300 mg/kg, route oral; conditions: in vivo
[10] = tested on: Mus musculus; assay: Acute toxicity in Swiss albino mouse assessed as change in triglyceride level at 5 to 300 mg/kg, po administered as single dose; type: organism-based; parameters: dose 5-300 mg/kg, route oral; conditions: in vivo
[11] = tested on: Mus musculus; assay: Acute toxicity in Swiss albino mouse assessed as mortality at 5 to 300 mg/kg, po administered as single dose; type: organism-based; parameters: dose 5-300 mg/kg, route oral; conditions: in vivo
[12] = tested on: Mus musculus; assay: Acute toxicity in Swiss albino mouse assessed as change in differential leukocyte count at 5 to 300 mg/kg, po administered as single dose; type: organism-based; parameters: dose 5-300 mg/kg, route oral; conditions: in vivo
[13] = tested on: Mus musculus; assay: Acute toxicity in Swiss albino mouse assessed as change in total RBC at 5 to 300 mg/kg, po administered as single dose; type: organism-based; parameters: dose 5-300 mg/kg, route oral; conditions: in vivo
[14] = tested on: Mus musculus; assay: Acute toxicity in Swiss albino mouse assessed as change in absolute and relative weight of the organs at 5 to 300 mg/kg, po administered as single dose; type: organism-based; parameters: dose 5-300 mg/kg, route oral; conditions: in vivo
[15] = tested on: Mus musculus; assay: Acute toxicity in Swiss albino mouse assessed as observational changes at 5 to 300 mg/kg, po administered as single dose; type: organism-based; parameters: dose 5-300 mg/kg, route oral; conditions: in vivo
[16] = tested on: Mus musculus; assay: Acute toxicity in Swiss albino mouse assessed as change in serum total cholesterol level at 5 to 300 mg/kg, po administered as single dose; type: organism-based; parameters: dose 5-300 mg/kg, route oral; conditions: in vivo

Cc1ccc2c(c1)CC(C=O)=C2Cl
MIC [1]: 250 µg/mL (≈ 1300 µM)

Cc1cccc2c1C(Cl)=C(C=O)C2
MIC [1]: 125 µg/mL (≈ 649 µM)

CO[C@H]1/C=C/O[C@@]2(C)Oc3c(C)c(O)c4c(O)c(c(/C=N/N5CCN(C)CC5)c(O)c4c3C2=O)NC(=O)/C(C)=C\C=C\[C@H](C)[C@H](O)[C@@H](C)[C@@H](O)[C@@H](C)[C@H](OC(C)=O)[C@@H]1C [RIFAMPIN]
MIC [1]: 2 µg/mL (≈ 2.43 µM)

COc1ccc2c(c1)CCCC2O (configuration not stated)
Activity [2]: inactive

COc1ccc2c(c1)CCCC2OC(C)=O (configuration not stated)
MIC [1]: 30 µg/mL (≈ 136 µM)

COc1ccc2c(c1)CCC/C2=N\O
MIC [1]: 500 µg/mL (≈ 2610 µM)

COc1cc(C2C(C=O)=C(Cl)c3cc(OC)c(OC)c(OC)c32)cc(OC)c1OC (configuration not stated)
Activity [2]: inactive

COc1ccc2c(c1)CCC(C=O)=C2Cl
MIC [1]: 125 µg/mL (≈ 561 µM)

COc1ccc2c(c1)CCC(CO)=C2Cl
MIC [1]: 500 µg/mL (≈ 2230 µM)

CC1CC(C=O)=C(Cl)c2ccccc21 (configuration not stated)
MIC [1]: 125 µg/mL (≈ 605 µM)

O=CC1=C(Cl)c2ccccc2CC1
MIC [1]: 60 µg/mL (≈ 311 µM)

CO[C@H]1CCC(=O)c2cccc(O)c21
MIC [1]: 6.25 µg/mL (≈ 32.5 µM)

CN[C@@H]1[C@H](O[C@H]2[C@H](O[C@H]3[C@H](O)[C@@H](O)[C@H](N=C(N)N)[C@@H](O)[C@@H]3N=C(N)N)O[C@@H](C)[C@]2(O)C=O)O[C@@H](CO)[C@H](O)[C@H]1O [STREPTOMYCIN]
MIC [1]: 2 µg/mL (≈ 3.44 µM)

O=CC1=C(Cl)c2ccc(Cl)cc2C1
MIC [1]: 125 µg/mL (≈ 587 µM)

O=CC1=C(Cl)c2cc3c(cc2C1)OCO3
MIC [1]: 125 µg/mL (≈ 561 µM)

O=CC1=C(Cl)c2ccccc2C1c1ccccc1 (configuration not stated)
MIC [1]: 250 µg/mL (≈ 981 µM)

COc1ccc2c(c1)CCC(OC=O)=C2Cl
Activity [3]: Non-toxic
MIC [1]: 30 µg/mL (≈ 126 µM)
MTD [4]: 300 mg/kg
Activity [5]: Non-toxic
Activity [6]: Non-toxic
Activity [7]: Non-toxic
Activity [8]: Non-toxic
Activity [9]: Non-toxic
Activity [10]: Non-toxic
Activity [11]: Non-toxic
Activity [12]: Non-toxic
Activity [13]: Non-toxic
Activity [14]: Non-toxic
Activity [15]: Non-toxic
Activity [16]: Non-toxic

O=Cc1cc2ccccc2c(Cl)c1C=O
MIC [1]: 500 µg/mL (≈ 2290 µM)

COc1ccc2c(c1)C(Cl)=C(C=O)C1C2CC[C@@]2(C)C1CC[C@@H]2OC(C)=O (some centres not stated)
Activity [2]: inactive

COc1ccc2c(c1)CC(C=O)=C2Cl
MIC [1]: 125 µg/mL (≈ 599 µM)

COc1cc2c(cc1C=O)C=CCC2
MIC [1]: 500 µg/mL (≈ 2660 µM)

Cc1cc(O)c2c(c1)[C@H](O)CCC2=O [SHINANOLONE]
MIC [1]: 100 µg/mL (≈ 520 µM)

COc1ccc2c(c1)CCCC2
MIC [1]: 125 µg/mL (≈ 771 µM)
